Results from ChEMBL document CHEMBL1629617, “IncA/C plasmid-mediated florfenicol resistance in the catfish pathogen Edwardsiella ictaluri” (2009).
In brackets after ≈: the same amount, converted by molar mass.

Columns and labels:
Format in all cases: functional
Escherichia coli [1] = assay: Antimicrobial activity against Escherichia coli ATCC […] carrying Edwardsiella ictaluri pM07-1 by microdilution assay
Edwardsiella ictaluri [2] = assay: Antimicrobial activity against florfenicol-resistant Edwardsiella ictaluri M07-1 by microdilution assay
Escherichia coli [3] = assay: Antimicrobial activity against Escherichia coli ATCC […] by microdilution assay
Edwardsiella ictaluri [4] = assay: Fold resistance, ratio of MIC for florfenicol-resistance Edwardsiella ictaluri M07-1 to MIC for florfenicol-susceptible Edwardsiella ictaluri

Compound | MIC (Escherichia coli [1]) | MIC (Edwardsiella ictaluri [2]) | MIC (Escherichia coli [3]) | Ratio (Edwardsiella ictaluri [4])
CO/N=C(\C(=O)N[C@@H]1C(=O)N2C(C(=O)O)=C(CSc3nc(=O)c(O)nn3C)CS[C@H]12)c1csc(N)n1 [CEFTRIAXONE] | 32 µg/mL (≈ 57.7 µM) | 32 µg/mL (≈ 57.7 µM) | < 0.25 µg/mL | –
O=C(O)[C@H]1/C(=C/CO)O[C@@H]2CC(=O)N21 [CLAVULANIC ACID] | 16 µg/mL (≈ 80.3 µM) | 16 µg/mL (≈ 80.3 µM) | 2 µg/mL (≈ 10 µM) | –
CO/N=C(\C(=O)N[C@@H]1C(=O)N2C(C(=O)O)=C(CSC(=O)c3ccco3)CS[C@H]12)c1csc(N)n1 [CEFTIOFUR] | > 8 µg/mL | 8 µg/mL (≈ 15.3 µM) | 0.5 µg/mL (≈ 0.955 µM) | –
CN[C@@H]1[C@H](O[C@H]2[C@H](O[C@H]3[C@H](O)[C@@H](O)[C@H](N=C(N)N)[C@@H](O)[C@@H]3N=C(N)N)O[C@@H](C)[C@]2(O)C=O)O[C@@H](CO)[C@H](O)[C@H]1O [STREPTOMYCIN] | > 64 µg/mL | > 64 µg/mL | < 32 µg/mL | –
CO[C@@]1(NC(=O)Cc2cccs2)C(=O)N2C(C(=O)O)=C(COC(N)=O)CS[C@@H]21 [CEFOXITIN] | > 32 µg/mL | > 32 µg/mL | 4 µg/mL (≈ 9.36 µM) | –
Cc1cc(NS(=O)(=O)c2ccc(N)cc2)no1 [SULFAMETHOXAZOLE] | 19 µg/mL (≈ 75 µM) | 19 µg/mL (≈ 75 µM) | 2.4 µg/mL (≈ 9.48 µM) | –
COc1cc(Cc2cnc(N)nc2N)cc(OC)c1OC [TRIMETHOPRIM] | 1 µg/mL (≈ 3.44 µM) | 1 µg/mL (≈ 3.44 µM) | 0.1 µg/mL (≈ 0.344 µM) | –
O=C(N[C@H](CO)[C@H](O)c1ccc([N+](=O)[O-])cc1)C(Cl)Cl [CHLORAMPHENICOL] | > 32 µg/mL | > 32 µg/mL | 4 µg/mL (≈ 12.4 µM) | –
CC1(C)S[C@@H]2[C@H](NC(=O)[C@H](N)c3ccccc3)C(=O)N2[C@H]1C(=O)O [AMPICILLIN] | > 32 µg/mL | > 32 µg/mL | 4 µg/mL (≈ 11.4 µM) | –
CC1(C)S[C@@H]2[C@H](NC(=O)[C@H](N)c3ccc(O)cc3)C(=O)N2[C@H]1C(=O)O [AMOXICILLIN] | > 32 µg/mL | > 32 µg/mL | 4 µg/mL (≈ 10.9 µM) | –
CN(C)[C@@H]1C(O)=C(C(N)=O)C(=O)[C@@]2(O)C(O)=C3C(=O)c4c(O)cccc4[C@@](C)(O)[C@H]3C[C@@H]12 [TETRACYCLINE] | 32 µg/mL (≈ 72 µM) | 32 µg/mL (≈ 72 µM) | 4 µg/mL (≈ 9 µM) | –
CS(=O)(=O)c1ccc([C@@H](O)[C@@H](CF)NC(=O)C(Cl)Cl)cc1 [FLORFENICOL] | 256 µg/mL (≈ 715 µM) | 128 µg/mL (≈ 357 µM) | 4 µg/mL (≈ 11.2 µM) | 500
